In patent EP4107145B1, “PYRAZOLE-INDOLE CONJUGATES FOR PHOTODYNAMIC TREATMENT OF CANCER AND BACTERIAL INFECTIONS” (Univerzita Palackého v Olomouci, priority 2020, dated 2021):

How the values were obtained:
G361 cell line [1] = test: MTT cell viability assay without irradiation (dark viability); assay type: cell-based, human; conditions: G361, treated 24 h, no irradiation; viability similar to untreated cells
Method: G361 cell line (human skin melanoma) was cultivated in DMEM medium supplemented with 10% fetal bovine serum, 1% penicillin/streptomycin, 1% glutamine, at 37 °C in 5% CO2 atmosphere. Viability of cells was determined using the MTT (Sigma-Aldrich) assay in 96-well microplates (10^4 per well in 100 µl of DMEM). The test compounds were added 24 h post plating and the cells were then incubated for additional 24 h. Cells were then exposed to an irradiation in 100 µl of PBS with 5 mM glucose and incubated for further 24 h. After the experiment, 50 µl of MTT (dissolved in PBS) was added and cells were incubated for another 3 h at 37 °C and in 5 % CO2. The media was then carefully replaced with 100 µl of DMSO in order to solubilize the violet formazan crystals. The measurement of absorbance was carried out on reader Synergy HT at 570 nm and 690 nm. The cell viability of the samples was determined as a percentage of the control cell viability (100 × average of test group / average of control group). The data for the determination of EC50 was calculated using the Phototox v. 2.0 software (ZEBET). Dark viability was measured in parallel under the same conditions without irradiation. The viability of cells treated with compounds 5, 7 and 10 for 24 h without irradiation was similar to untreated cells, thus concluding that the compounds have no cytotoxicity up to 10 µM concentrations (Figure 4).

irradiated G361 cells = test: Photodynamic treatment (LED 414 nm) with MTT cell viability assay; assay type: cell-based; conditions: Homo sapiens, G-361, light or radiation study
Method: G361 cell line (human skin melanoma) was cultivated in DMEM medium supplemented with 10% fetal bovine serum, 1% penicillin/streptomycin, 1% glutamine, at 37 °C in 5% CO2 atmosphere. Viability of cells was determined using the MTT (Sigma-Aldrich) assay in 96-well microplates (10^4 per well in 100 µl of DMEM). The test compounds were added 24 h post plating and the cells were then incubated for additional 24 h. Cells were then exposed to an irradiation in 100 µl of PBS with 5 mM glucose and incubated for further 24 h. After the experiment, 50 µl of MTT (dissolved in PBS) was added and cells were incubated for another 3 h at 37 °C and in 5 % CO2. The media was then carefully replaced with 100 µl of DMSO in order to solubilize the violet formazan crystals. The measurement of absorbance was carried out on reader Synergy HT at 570 nm and 690 nm. The cell viability of the samples was determined as a percentage of the control cell viability (100 × average of test group / average of control group). The data for the determination of EC50 was calculated using the Phototox v. 2.0 software (ZEBET). Dark viability was measured in parallel under the same conditions without irradiation. An in-house constructed LED based light source specifically designed for the irradiation of 96-well microplates and Petri dishes (Tomecka et al., CZ302829B6, 2006) was used; a maximal wavelength emission of 414 nm and light intensity set to 20 mW/cm^2. For photodynamic treatments, cultivation medium was aspirated and replaced by PBS supplemented with 5 mM glucose. Immediately after irradiation, PBS was removed and full DMEM was added to cells. The cultivation lasted for subsequent 24 h. All assays were performed in triplicates and repeated independently three times. In an initial experiment, G361 cells were treated with the tested compounds for 24 h and then exposed to light (LED source, 414 nm) with a total irradiation dose of 10 J/cm^2. Viability of cells was quantified 24 h after the irradiation by an MTT assay (Table 3). Subsequently, G361 cells treated with compound 7 were also exposed to total irradiation doses of 1 and 50 J/cm^2. Table 3. EC50 of compounds 5, 7 and 10 in irradiated G361 cells (10 J/cm2).

[2] = Absorption and fluorescence properties in water; assay type: physicochemical; conditions: for λem: λex 360 nm for compound 5, 385 nm for compounds 7 and 10
Method: All chemicals and solvents were purchased from commercial suppliers and used without further purification unless otherwise specified. Prior to use, N,N-dimethylformamide was stored over molecular sieves (4 Å), while toluene and dichloromethane were dried over anhydrous sodium sulfate. All reactions were performed in oven dried flasks under argon atmosphere with magnetic stirring. Reaction progress was monitored by TLC analysis on Macherey-Nagel™ ALUGRAM® Xtra SIL G/UV254 plates. TLC plates were visualized with UV light (wavelengths 254 and 365 nm) or iodine vapour. Compounds were purified by flash chromatography in a glass column (stationary phase - silicagel, high-purity grade 9385, pore size 60 Å, particle size - 230-400 mesh, supplier Sigma-Aldrich). ^1H and ^13C NMR spectra were recorded at room temperature on a Bruker Avance III 700 spectrometer (700 MHz for ^1H and 176 MHz for ^13C) in CDCl3 as solvent. FT-IR spectra were collected using ATR method on a Bruker Vertex 70v spectrometer with an integrated Platinum ATR accessory. The melting points of crystalline compounds were determined in open capillary tubes with a Buchi M-565 apparatus (temperature gradient - 2 °C/min) and are uncorrected. High-resolution mass spectrometry (HRMS) spectra were obtained in ESI mode on a Bruker MicrOTOF-Q III spectrometer. UV-Vis absorption and fluorescence spectra were registered on an Infinity M200 Pro Tecan microplate reader.
Fluorescence properties of final compounds 5, 7 and 10 were investigated in water. The excitation wavelength λex was set to 360 nm for compound 5 and to 385 nm for compounds 7 and 10. The emission maxima λem of all three compounds are located in the 475-525 nm range, which corresponds to the blue part of the visible light spectrum.
On the other hand, as expected an additional double bond in compound 10, compared to compound 7, caused both a bathochromic shift of the emission maxima. […] Table 2. Absorption and fluorescence characteristics of compounds 5, 7 and 10 in water.

G361 cells [3] = test: Comet assay (DNA fragmentation); assay type: cell-based, human; conditions: irradiated with 50 J/cm2
Method: Microscope slides were pre-coated with 1% HMP agarose (Qbiogene) dissolved in distilled water. After stiffening, two 1% agarose spots (dissolved in PBS) were made and overlayed with a cover slip. Treated or control G361 cells were trypsinized, rinsed by DMEM and then the mixture of 25 µl of cell suspension and 85 µl of 1% LMP agarose (dissolved in PBS) was added to the microscope slides with agarose gel. The microscope slides were immersed in a lysis buffer with 1% Triton X for 1 h and then placed in an electrophoretic tank and dipped into a cool electrophoresis solution for 40 min. After the electrophoresis (20 V, 350 mA, 20 min), the microscopic slides were immersed in a neutralisation buffer (10 min twice). The samples were then stained by SYBR Green (Invitrogen) for 15 min and scored by the SW Comet Score (TriTek Corp.). In order to determine the extent of DNA fragmentation caused by a combination of compound 7 and irradiation in G361 cells, comet assay was performed (Figure 4). The cells were divided into four groups according to degree of DNA fragmentation: 0-10%, 11-30%, 31-50% and 50-100%. […] Table 5. Degree of DNA fragmentation in G361 cell line treated by compound 7 at 0.052 µM and irradiated with 50 J/cm2.

G361 cells [4] = test: Mitochondrial membrane potential change assay (JC-1); assay type: cell-based, human; conditions: G361, 0.052 µM, irradiated with 50 J/cm^2 (414 nm)
Method: Mitochondrial membrane potential change was monitored by the fluorescent dye JC-1. After 24 h incubation the cells were washed by PBS. Then 50 µl of a JC-1 solution (Sigma-Aldrich) was added (5 mg/ml in DMSO + 5 ml PBS) and cells were incubated at 37 °C and in 5 % CO2 for 20 min. After incubation the cells were washed by PBS twice. The results were expressed as the ratio of the green fluorescence (excitation wavelength - 485 nm, emission wavelength - 548 nm) and red fluorescence (excitation wavelength - 520 nm, emission wavelength - 590 nm) retained within the cells. JC fluorescence was measured using Synergy HT reader.

[5] = tested on: histone H2A.X phosphorylation at Ser-139; test: DNA damage by immunoblotting of histone H2A.X phosphorylation; assay type: cell-based, human; conditions: G361, treated 24 h
Method: After the treatment, cell lysates were prepared in RIPA buffer, then proteins were separated on SDS-polyacrylamide gels and electroblotted onto nitrocellulose membranes. After blocking, overnight incubation with specific primary antibodies and incubation with peroxidase-conjugated secondary antibodies, the peroxidase activity was detected with SuperSignal West Pico reagents (Thermo Scientific) using a CCD camera LAS-4000 (Fujifilm). All primary antibodies were diluted in PBS containing 5% powdered milk and 0.1% Tween 20. The specific antibodies were purchased from Cell Signaling (anti-PARP, clone 46D11; HRP-linked rabbit anti-mouse immunoglobulin), Sigma Aldrich (anti-α-tubulin, clone DM1A), Millipore (anti-phospho-histone H2A.X, Ser139, clone JBW301). To independently confirm DNA damage caused by a combination of compound 7 and irradiation in G361 cells, phosphorylation of histone H2A.X at Ser-139 (yH2A.X) was evaluated using immunoblotting analysis (Figure 5). Increased level of yH2A.X is a well-accepted marker of DNA damage. The cells were treated with different doses of compound 7 for 24 h, then either kept in dark or exposed to light with a total irradiation dose of 1, 10 or 50 J/cm^2 and cultivated for subsequent 24 h. After this period, the cells were harvested and analyzed by immunoblotting.

[6] = tested on: Escherichia coli (DH5alpha); test: Antimicrobial activity with light irradiation, colony counting; assay type: cell-based; conditions: in combination with blue light irradiation (414 nm), Fig. 6
Method: Antimicrobial activity was tested on Escherichia coli (DH5alpha).The cells were grown aerobically at 37°C in LB medium. When reached exponential growth phase, the suspension was diluted with fresh LB and supplemented with test compounds or with diluted DMSO (as a control) and seeded on Petri dishes with agar media. After 5 hours the plates were exposed to light from a light emitting diode source, a maximal wavelength emission of 414 nm, light intensity set to 20 mW/cm^2 (M. Tomecka, et al., CZ302829B6, 2006). The control samples for dark toxicity were not exposed to the light. After irradiation the plates were in the dark incubator at 37 °C for 16 h and then the colonies were counted.

G361 cell line [7] = test: Reactive oxygen species (ROS) production, CM-H2DCFDA fluorescence; assay type: cell-based, human; conditions: G361, 0.052 µM, irradiation of 50 J/cm2 (414 nm)
Method: ROS was quantified using a CM-H2DCFDA (Invitrogen) solution (10 µl 10 µM DCF + 1 ml PBS) and a microplate reader Synergy HT. Right after adding 50 µl of DCF solution, 25 min incubation and irradiation, the ROS production was determined by measuring fluorescence using Synergy HT reader. An excitation wavelength of 485 nm and an emission wavelength of 548 nm were used.

[8] = 24 h, G361, 24 h treatment, 414 nm, total irradiation dose 10 J/cm2, MTT 24 h after irradiation

Row | λabs [2] [nm] | λem [2] [nm] | Compound | cytotoxicity without irradiation (dark viability) (G361 cell line [1]) [µM] | EC50 (irradiated G361 cells; [8]) [nM] | DNA fragmentation in comparison with untreated control cells (G361 cells [3]; G361, 0.052 µM) | relative number of cells, degree of DNA fragmentation 0-10 % (G361 cells [3]; G361, treated, 0.052 µM) [%] | relative number of cells, degree of DNA fragmentation 11-30 % (G361 cells [3]; G361, treated, 0.052 µM) [%] | relative number of cells, degree of DNA fragmentation 31-50 % (G361 cells [3]; G361, treated, 0.052 µM) [%] | relative number of cells, degree of DNA fragmentation 51-100 % (G361 cells [3]; G361, treated, 0.052 µM) [%] | JC-1 polymer aggregation within mitochondria (mitochondrial membrane potential) (G361 cells [4]) | H2A.X phosphorylation (yH2A.X) ([5]; irradiation dose 1 J/cm2 (414 nm)) | H2A.X phosphorylation (yH2A.X) ([5]; irradiation dose 10 J/cm2 (414 nm)) | H2A.X phosphorylation (yH2A.X) ([5]; irradiation dose 50 J/cm2 (414 nm)) | H2A.X phosphorylation (yH2A.X) ([5]; kept in dark) | EC50 (irradiated G361 cells; G361, 414 nm, total irradiation dose 1 J/cm^2) [nM] | EC50 (irradiated G361 cells; G361, 414 nm, total irradiation dose 50 J/cm^2) [nM] | antibacterial effect [6] | ROS production increase in comparison to control cells (G361 cell line [7]) [%]
1 | 380 | 525 | CCCCCCOc1nn(-c2ccccc2)cc1/C=C/C=C/c1ccc2c(c1)C(C)(C)C(c1ccccc1)=N2 [Compound 10, 5-{(1E, 3E)-4-[3-(Hexyloxy)-1-phenyl-1H-pyrazol-4-yl]buta-1,3-dien-1-yl}-3,3-dimethyl-2-phenyl-3H-indole] | > 10 | 2060 ± 82 |  |  |  |  |  |  |  |  |  |  |  |  |  | 
2 | 380 | 495 | CCCCCCOc1nn(-c2ccccc2)cc1/C=C/c1ccc2c(c1)C(C)(C)C(c1ccccc1)=N2 [Compound 7, 5-{(E)-2-[3-(Hexyloxy)-1-phenyl-1H-pyrazol-4-yl]ethenyl}-3,3-dimethyl-2-phenyl-3H-indole] | > 10 | 262 ± 2 | significant DNA fragmentation | 62.83 ± 2.72 | 30.73 ± 4.07 | 4.84 ± 0.65 | 1.6 ± 1.59 | decrease in JC-1 polymer aggregation within mitochondria | faint yH2A.X signal | massive increase of yH2A.X | massive increase of yH2A.X | did not show any H2A.X phosphorylation | 3080 ± 155 | 52 | antibacterial effect | 30
3 | 355 | 475 | CCCCCCOc1nn(-c2ccccc2)cc1C#Cc1ccc2c(c1)C(C)(C)C(c1ccccc1)=N2 [Compound 5, 5-{[3-(Hexyloxy)-1-phenyl-1H-pyrazol-4-yl]ethynyl}-3,3-dimethyl-2-phenyl-3H-indole] | > 10 | 6213 ± 38 |  |  |  |  |  |  |  |  |  |  |  |  |  | 
